Structures are written as SMILES.

In data set [1] the test system is acute iron poisoning induced organ damage. The experiment in a line: Acute iron poisoning (FeSO4) induced organ damage, plasma LDH and creatine kinase. It counts as in vivo. The note with it: for Protection against organ damage: plasma lactate dehydrogenase (LDH) and creatine kinase levels, prophylactic setting: ~10 mg/kg iv 15 min before FeSO4 300 mg/kg ip, plasma 2 h after challenge (FIG. 5A); for Protection against organ damage: plasma lactate dehydrogenase (LDH) and creatine kinase levels, therapeutic setting: ~10 mg/kg iv 30 min after FeSO4 300 mg/kg ip, plasma 8 h after challenge (FIG. 5B). Here is the method: Equimolar amounts of ferroptosis inhibitors (˜10 mg/kg) were injected iv 15 min before ip injection of FeSO4 (300 mg/kg). Plasma was collected 2 h after FeSO4-challenge and analyzed for the presence of lactate dehydrogenase (LDH) and creatine kinase. Fer-1 is ferrostatin, 3234 is compound 37,3206 is compound 38 and 3203 is compound 39 (see Table 1 for numbering and structure). […] Equimolar amounts of ferroptosis inhibitors (˜10 mg/kg) were injected iv 30 min after ip injection of FeSO4 (300 mg/kg). Plasma was collected 8 h after FeSO4-challenge and analyzed for the presence of lactate dehydrogenase (LDH) and creatine kinase.
We identified acute iron poisoning as a novel experimental model for in rhabdomyolysis-induced kidney failure.

A short description of data set [2]: Plasma stability, mouse plasma. It is filed as in vitro ADME. The conditions noted are these: 37° C., remaining parent compound, read-out: Plasma stability (% recovery after 6 h), Mouse. Here is the method: (§1) 5 μl of a 10 mM stock solution of the compound in DMSO was added to 995 μl of plasma to obtain a 50 μM final solution. The mixture was gently shaken for 6 h at 37° C. Aliquots of 100 μl were taken at various time points (0, 0.5 h, 1 h, 2 h, 3 h and 6 h) and diluted with 400 μl of cold methanol (stored at 4° C.). The suspension was centrifuged at 14000 rpm for 5 min. 50 μl of the supernatant was diluted with 950 μl of methanol and analysed with LC/MS/MS. The samples were analysed in triplicate. The experiment was done in duplicate. […] Enalapril maleate was used as a control in mice, rats, and in human.

A short description of data set [3]: Microsomal (metabolic) stability, rat liver microsomes. The note with it: for CLint scaled at 10 µM / half-life at 10 µM: rat. The source says:
(§2) By using the measured microsomal in vitro t1/2, a calculated value for the intrinsic clearance Clint can be determined. This value states the measure in which a drug that is not bound to plasma proteins is irreversibly removed from the body by the liver. This value is expressed in mL/min/kg which can be interpreted as the volume of blood in mL that is cleared of a drug per minute per kilogram of body weight. The CLint is less sensitive to used variables in ADME assays since the amount of microsomal protein and the volume of the incubation are all taken into account. (Sohlenius-Sternbeck et al., Xenobiotica, 2012, 42, 841-853)
(§3) Liver microsomes (20 mg protein/ml), NADPH regenerating system solutions A & B and 5 mM stock compound solution (100% DMSO) are prepared. The reaction mixture finally contains 713 μL purified water, 200 μL 0.5 M potassium phosphate pH 7.4, 50 μL NADPH regenerating system solution A (BD Biosciences Cat. No. 451220), 10 μL NADPH regenerating system solution B (BD Biosciences Cat. No. 451200) and 2 μL of the compound stock solution (10 μM final concentration). The reaction mixture is warmed to 37° C. for 5 minutes in a water bath and the reaction is initiated by addition of 25 μL of liver microsomes (0.5 mg protein/ml final concentration). At different time points (0 min-15 min-30 min-60 min-120 min-240 min-360 min-24 h), 20 μL is withdrawn and 80 μL cold acetonitrile is added on ice for 10 minutes. Then the mixtures are centrifuged at 13 000 rpm for 5 min at 4° C. The supernatant is further diluted in 90% water/MeCN (1/25) to fall within the range of the LC/MS/MS analysis. At each time point, the compound is analysed using LC/MS/MS with the same UPLC system as described above. A standard curve of six points was made to fit the measured concentrations. Verapamil was used as a positive control.
(§4) All obtained readouts were processed using Microsoft Excel. In order to determine the microsomal half-life t1/2 of the compounds, the rate constant k was determined by plotting the exponential decay graphs using GraFit. Microsomal t1/2 was determined using the following formula: […]
(Liver microsomes are a subcellular fraction often used to study metabolism.)

The nature of data set [4]: Plasma stability, human plasma. It is filed as in vitro ADME. The note with it: 37° C., remaining parent compound, read-out: Plasma stability (% recovery after 6 h), Human. Here is the method: as §1
A short description of data set [5]: Microsomal (metabolic) stability, human liver microsomes. The note with it: for Microsomal stability (t1/2), Human / half-life at 10 µM: human liver microsomes, 0.5 mg protein/ml, 10 μM compound, 37° C.; for Microsomal stability (t1/2), Human: Hydrochloride; for CLint scaled at 10 µM / half-life at 10 µM: human, liver microsomes; for CLint scaled at 10 µM: pH 7.4; for half-life at 10 µM: pH 7.4, Microsomal stability (t1/2).
From the text: as §2, §3, §4

Data set [6] can be described thus: Plasma stability, rat plasma. It counts as in vitro ADME. The conditions noted are these: 37° C., remaining parent compound, read-out: Plasma stability (% recovery after 6 h), Rat. As to the method:
as §1

A short description of data set [7]: In vivo pharmacokinetics, single iv administration to male Wistar rats (blood concentration). Also on record: species or system rat. The note with it: 5 mg/kg iv. As to the method:
In order to estimate how these in vitro ADME parameters correlate to an in vivo setting, compound 39 was selected for a single intravenous (iv) administration to three male Wistar rats at a dose of 5 mg/kg. Blood samples were obtained at various time points. (0.083, 0.25, 0.5, 1, 2, 4, and 24 h) The concentration of 39 was determined using UPLC analysis coupled with tandem quadrupole mass spectrometry. […] Only in 1 sample a concentration of […] was determined 5 minutes after dosing.
Male Wistar rats (BW˜250 g; Janvier France) were housed individually and randomly allocated to groups of 3 animals each based on body weight. The animals were fasted overnight until 4 hours after dosing. Drinking water remained available ad libitum.
The test compound were kept at 4° C. until formulation. The compound was formulated in PEG200 at 10 mg/ml. The test formulation was prepared by LMPH and stored at room temperature.
Blood was collected from sublingual vein using capillary tubes under isoflurane anaesthesia. The blood was dropped (15 μL) on Whatman® FTA® DMPK B cards, dried at room temperature for at least 2 hours and further processed for analysis. A 6 mm disk was punched from the blood spot center, extracted in 75:25 ACN:H2O containing tolbutamide as internal standard (IS). […] The optimal DBS protocol (FTA DMPK-A or B card, extraction solvent) was determined in a preliminary experiment.

Where [8] appears, read: liver microsomes, pH 7.4, Microsomal stability (t1/2), rat liver microsomes, 0.5 mg protein/ml, 10 μM compound, 37° C.

As usually defined, the CLint scaled is a measure of how fast metabolising enzymes remove a compound, apart from limits set by blood flow. By half-life is commonly meant the time needed for the level to fall by half in the phase considered. The low end stands for fast loss, the high end for slow loss. As for `Cl.O=S(=O)(NCCN1CCNCC1)c1ccc(NC2CCCCC2)c(NCc2ccccc2)c1` [Compound 39, 3-(benzylamino)-4-(cyclohexylamino)-N-(2-(piperazin-1-yl)ethyl)benzenesulfonamide Hydrochloride], the “Protection against organ damage: plasma lactate dehydrogenase (LDH) and creatine kinase levels, prophylactic setting” value (“Protection … prophylactic setting” below) in data set [1] is “more effective”. The “Protection against organ damage: plasma lactate dehydrogenase (LDH) and creatine kinase levels, therapeutic setting” value (shortened to “Protection … therapeutic setting”) in data set [1] was “more effective”. Besides, the recovery at 6 h, 50 μM in data set [2] worked out at 100%; in data set [4], 84.2%; in data set [6] it was 85.8%. Also, the “Microsomal stability (t1/2), Rat” value in data set [3] (rat liver microsomes, 0.5 mg protein/ml, 10 μM compound, 37° C., Hydrochloride) is recorded as 16.48 ± 4.66 h. In addition, the CLint scaled at 10 µM was found to be 3.4 ± 1 mL/min/kg in data set [3] (liver microsomes, pH 7.4) and 1.1 ± 0.3 mL/min/kg in data set [5]. Further, the values for the half-life at 10 µM in data set [3] (setting [8]) and in data set [5] were 16.5 h and 20.5 h, respectively. In addition, the “Microsomal stability (t1/2), Human” value in data set [5] came out at 20.53 ± 5.49 h. The “Plasma concentration (below detection limit in nearly all samples)” value in data set [7] (0.083-24 h) is recorded as under 53.1 ng/mL. Moreover, the Plasma concentration in 1 sample in data set [7] (5 minutes after dosing) was found to be 19.6 ng/mL.
`CNCCNS(=O)(=O)c1ccc(NC2CCCCC2)c(NCc2ccccc2)c1.Cl` [Compound 37, 3-(benzylamino)-4-(cyclohexylamino)-N-(2-(methylamino)ethyl)benzenesulfonamide Hydrochloride]: the “Protection … prophylactic setting” value in data set [1] was “more effective”. Besides, in data set [1], the “Protection … therapeutic setting” value is “more effective”. For the same molecule, the results for the recovery at 6 h, 50 μM in data set [2], in data set [4] and in data set [6] were 100%, 90.3% and 65.8%, respectively. Further, the CLint scaled at 10 µM in data set [3] (liver microsomes, pH 7.4) is 161 ± 4.6 mL/min/kg; in data set [5], 1.7 ± 0.5 mL/min/kg. Also, the values for the half-life at 10 µM in data set [3] (setting [8]) and in data set [5] were 0.35 ± 0.01 h and 13.2 ± 4.1 h, respectively.
Turning to `Cl.NCCNS(=O)(=O)c1ccc(NC2CCCCC2)c(NCc2ccccc2)c1` [Compound 38, N-(2-aminoethyl)-3-(benzylamino)-4-(cyclohexylamino)benzenesulfonamide Hydrochloride], the “Protection … prophylactic setting” value in data set [1] is given as “more effective”. Also, the “Protection … therapeutic setting” value in data set [1] is “more effective”. For the same molecule, the recovery at 6 h, 50 μM in data set [2], in data set [4] and in data set [6] was 100% throughout. The CLint scaled at 10 µM in data set [3] (liver microsomes, pH 7.4) was 27.4 ± 2.7 mL/min/kg; in data set [5] it was 1.3 ± 0.1 mL/min/kg. Further, the half-life at 10 µM in data set [3] (microsomes, pH 7.4) was 2.05 h; in data set [5] it was 17.7 h. Further, the “Microsomal stability (t1/2), Human” value in data set [5] stood at 17.71 ± 2.04 h.

The values are drawn from US11339124B2, “3-(benzylamino)-4-(cyclohexylamino)-n-(2-(piperazin-1-yl)ethyl)benzenesulfonamide derivatives and related ferrostatin-1 analogues as cell death inhibitors for treating e.g. stroke” (VIB VZW, priority 2018, dated 2022).
